Source: patent US10610522B2, “Methods for retreating irritable bowel syndrome (IBS)” (Salix Pharmaceuticals, Inc., priority 2014, dated 2020)

Test system: d-IBS
Experiment: Study of rifaximin BID doses vs placebo in subjects with d-IBS: adequate relief of IBS symptoms and bloating
Format: in vivo, human
Conditions: for Percentage of subjects with adequate relief of IBS symptoms / Percentage of subjects with adequate relief of bloating symptom: RFX 550 mg BID 14 d, at least 2 of final 3 weeks of treatment phase (Weeks 1-4); for Adequate relief of bloating, post treatment, Failures / Adequate relief of bloating, post treatment, Success / Adequate relief of bloating, post treatment, Failure: RFX 550 2w (N = 54); for Patients with adequate relief of bloating / Patients with adequate relief of global IBS symptoms: 550 mg BID 14 d
Description: This example relates to a study of rifaximin in subjects with d-IBS. […] There were two measures of efficacy assessed. Subjects were questioned on the relief of overall IBS symptoms and bloating. […] The analyses defined success as a “yes” response to questions regarding adequate relief.
All subpopulations in the study responded to therapy. Baseline severity was determined using 7-point Lickert scales during screening for Abdominal Pain/Discomfort and Bloating, and the number, type (normal, hard, loose) and urgency of bowel movements.
Duration of effect was assessed in a follow-up period. Subjects that responded in the 4 week treatment period were followed for an additional 3 months.
The effect of treatment on the percentage of subjects who reported adequate relief of IBS and bloating symptoms for at least two of the final three weeks during the treatment phase (Weeks 1 to 4) is shown in Tables 5-7 and FIGS. 4-6 below.
The study assessed the effect over 12 weeks of follow-up on long-term adequate relief. Subjects who had adequate relief by Week 4 and remained symptom-free at Week 5 were followed during the post-treatment phase and shown in FIGS. 1 and 2. Superiority to placebo was maintained during the 12 weeks post-treatment follow-up. Results for IBS symptoms were RFX 550 mg BID 62.3% versus placebo 49.2%, and RFX 550 mg BID 59.3% versus 50.9% for placebo for the symptom of bloating through week 16. In assessing the follow-up data, there was statistical significance (p<0.05) of bloating and IBS symptoms for RFX 550 mg BID versus placebo.
Two measures of efficacy were assessed independently. The first was the proportion of subjects who provided a ‘yes’ response to the weekly SGA question: “In the past 7 days, have you had adequate relief of your IBS symptoms? (yes/no)”. The second endpoint was the proportion of subjects who provide a ‘yes’ response to the weekly individual symptom question: “In the past 7 days, have you had adequate relief of your symptom of bloating? (yes/no)”. Durability was based on the proportion of subjects that had adequate relief over the entire treatment phase.
It is reported herein that the severity of baseline symptoms of abdominal pain and bloating influenced the response to rifaximin treatment. The co-primary endpoints in this analysis assessed weekly yes/no responses to questions regarding adequate relief of global IBS symptoms and IBS-associated bloating. Severity of baseline IBS symptoms was evaluated as a potential confounder of clinical response and was categorized as mild/moderate or severe based on a mean score of ≤4 vs. >4 (on a 7-point scale) for bloating and abdominal pain.
The Weekly yes/no responses to questions regarding adequate relief of global IBS symptoms and IBS-associated bloating were assessed. Clinical response was defined as adequate relief for 2 of the final 3 treatment weeks (wk 2, 3, or 4). Severity of baseline IBS symptoms was evaluated as a potential confounder of clinical response and was categorized as mild/moderate or severe based on a mean score of ≤4 versus >4 (on a 7-point scale (0=not bothersome; 6=very bothersome)) for bloating and abdominal pain.

[1] = RFX 550 mg BID, responders followed through week 16
[2] = patients with mild/moderate abdominal pain at baseline
[3] = patients with mild/moderate bloating at baseline

CO[C@H]1/C=C/O[C@@]2(C)Oc3c(C)c(O)c4c(O)c(c5c(nc6cc(C)ccn65)c4c3C2=O)NC(=O)/C(C)=C\C=C\[C@H](C)[C@H](O)[C@@H](C)[C@@H](O)[C@@H](C)[C@H](OC(C)=O)[C@@H]1C [Rifaximin, (2S,16Z,18E,20S,21S,22R,23R,24R,25S,26S,27S,28E)-5,6,21,23,25 Pentahydroxy-27-methoxy-2,4,11,16,20,22,24,26-octamethyl-2,7-(epoxypentadeca-(1,11,13)trienimino) benzofuro (4,5-e) pyrido(1,2-a) benzimidazole-1,15(2H)-dione,25-acetate]
Treatment effect, Bloating (Age <65): 6.8% | Treatment effect, IBS Sx (Age <65): 6.9% | Treatment effect, Bloating (Age ≥65): 3.2% | Treatment effect, IBS Sx (Age ≥65): 19.1% | Treatment effect, Bloating (Diabetes History N): 7.4% | Treatment effect, IBS Sx (Diabetes History N): 9.5% | Treatment effect, Bloating (Diabetes History Y): −5.6% | Treatment effect, IBS Sx (Diabetes History Y): −12.7% | Treatment effect, Bloating (Disease Duration 10-20 y): 11.7% | Treatment effect, IBS Sx (Disease Duration 10-20 y): 20.1% | Treatment effect, Bloating (Disease Duration >20 y): 35.1% | Treatment effect, IBS Sx (Disease Duration >20 y): 46.6% | Treatment effect, Bloating (Disease Duration ≤10 y): 2.8% | Treatment effect, IBS Sx (Disease Duration ≤10 y): 1.8% | Adequate relief of IBS symptoms at end of treatment phase, Failure (Female, RFX 275 2w): 46 (56.8%) n (%) | Adequate relief of IBS symptoms at end of treatment phase, Success (Female, RFX 275 2w): 35 (43.2%) n (%) | Adequate relief of bloating at end of treatment phase, Failure (Female, RFX 275 2w): 52 (64.2%) n (%) | Adequate relief of bloating at end of treatment phase, Success (Female, RFX 275 2w): 29 (35.8%) n (%) | Adequate relief of IBS symptoms at end of treatment phase, Failure (Female, RFX 550 2w): 66 (48.2%) n (%) | Adequate relief of IBS symptoms at end of treatment phase, Success (Female, RFX 550 2w): 71 (51.8%) n (%) | Adequate relief of bloating at end of treatment phase, Failure (Female, RFX 550 2w): 74 (54.0%) n (%) | Adequate relief of bloating at end of treatment phase, Success (Female, RFX 550 2w): 63 (46.0%) n (%) | Adequate relief of IBS symptoms at end of treatment phase, Failure (Female, RFX 550 4w): 42 (55.3%) n (%) | Adequate relief of IBS symptoms at end of treatment phase, Success (Female, RFX 550 4w): 34 (44.7%) n (%) | Adequate relief of bloating at end of treatment phase, Failure (Female, RFX 550 4w): 44 (57.9%) n (%) | Adequate relief of bloating at end of treatment phase, Success (Female, RFX 550 4w): 32 (42.1%) n (%) | Adequate relief of IBS symptoms at end of treatment phase, Failure (Female, RFX 1100 2w): 44 (60.3%) n (%) | Adequate relief of IBS symptoms at end of treatment phase, Success (Female, RFX 1100 2w): 29 (39.7%) n (%) | Adequate relief of bloating at end of treatment phase, Failure (Female, RFX 1100 2w): 45 (61.6%) n (%) | Adequate relief of bloating at end of treatment phase, Success (Female, RFX 1100 2w): 28 (38.4%) n (%) | Treatment effect, Bloating (Gender F): 3.9% | Treatment effect, IBS Sx (Gender F): 3.5% | Treatment effect, Bloating (Gender M): 13.6% | Treatment effect, IBS Sx (Gender M): 21% | Adequate relief of IBS symptoms at end of treatment phase, Failure (Male, RFX 275 2w): 9 (64.3%) n (%) | Adequate relief of IBS symptoms at end of treatment phase, Success (Male, RFX 275 2w): 5 (35.7%) n (%) | Adequate relief of bloating at end of treatment phase, Failure (Male, RFX 275 2w): 8 (57.1%) n (%) | Adequate relief of bloating at end of treatment phase, Success (Male, RFX 275 2w): 6 (42.9%) n (%) | Adequate relief of IBS symptoms at end of treatment phase, Failure (Male, RFX 550 2w): 25 (46.3%) n (%) | Adequate relief of IBS symptoms at end of treatment phase, Success (Male, RFX 550 2w): 29 (53.7%) n (%) | Adequate relief of bloating at end of treatment phase, Failure (Male, RFX 550 2w): 29 (53.7%) n (%) | Adequate relief of bloating at end of treatment phase, Success (Male, RFX 550 2w): 25 (46.3%) n (%) | Adequate relief of IBS symptoms at end of treatment phase, Failure (Male, RFX 550 4w): 15 (68.2%) n (%) | Adequate relief of IBS symptoms at end of treatment phase, Success (Male, RFX 550 4w): 7 (31.8%) n (%) | Adequate relief of bloating at end of treatment phase, Failure (Male, RFX 550 4w): 16 (72.7%) n (%) | Adequate relief of bloating at end of treatment phase, Success (Male, RFX 550 4w): 6 (27.3%) n (%) | Adequate relief of IBS symptoms at end of treatment phase, Failure (Male, RFX 1100 2w): 14 (53.8%) n (%) | Adequate relief of IBS symptoms at end of treatment phase, Success (Male, RFX 1100 2w): 12 (46.2%) n (%) | Adequate relief of bloating at end of treatment phase, Failure (Male, RFX 1100 2w): 16 (61.5%) n (%) | Adequate relief of bloating at end of treatment phase, Success (Male, RFX 1100 2w): 10 (38.5%) n (%) | Percentage of subjects with adequate relief of IBS symptoms (ITT): 52% | Percentage of subjects with adequate relief of bloating symptom (ITT): 46% | Percentage of subjects with adequate relief of IBS symptoms (ITT, listed as RFX): 52.4% | Percentage of subjects with adequate relief of bloating symptom (ITT, listed as RFX): 46.1% | Percentage of subjects with 0 weeks with adequate relief of IBS symptoms (RFX 550 mg BID, ITT): 33% | Percentage of subjects with 0 weeks with adequate relief of bloating symptoms (RFX 550 mg BID, ITT): 35% | Percentage of subjects with 1 week with adequate relief of IBS symptoms (RFX 550 mg BID, ITT): 11% | Percentage of subjects with 1 week with adequate relief of bloating symptoms (RFX 550 mg BID, ITT): 14% | Percentage of subjects with 2 weeks with adequate relief of IBS symptoms (RFX 550 mg BID, ITT): 15% | Percentage of subjects with 2 weeks with adequate relief of bloating symptoms (RFX 550 mg BID, ITT): 15% | Percentage of subjects with 3 weeks with adequate relief of IBS symptoms (RFX 550 mg BID, ITT): 23% | Percentage of subjects with 3 weeks with adequate relief of bloating symptoms (RFX 550 mg BID, ITT): 20% | Percentage of subjects with 4 weeks with adequate relief of IBS symptoms (RFX 550 mg BID, ITT): 16% | Percentage of subjects with 4 weeks with adequate relief of bloating symptoms (RFX 550 mg BID, ITT): 14% | Long-term adequate relief of IBS symptoms in post-treatment follow-up [1]: 62.3% | Long-term adequate relief of the symptom of bloating in post-treatment follow-up [1]: 59.3% | Adequate relief of bloating, post treatment, Failures (Week 6): 5 (9.3%) n (%) | Adequate relief of bloating, post treatment, Success (Week 6): 49 (90.7%) n (%) | Adequate relief of bloating, post treatment, Failures (Week 7): 9 (16.7%) n (%) | Adequate relief of bloating, post treatment, Success (Week 7): 45 (83.3%) n (%) | Adequate relief of bloating, post treatment, Failures (Week 8): 7 (13.0%) n (%) | Adequate relief of bloating, post treatment, Success (Week 8): 47 (87.0%) n (%) | Adequate relief of bloating, post treatment, Failures (Week 9): 15 (27.8%) n (%) | Adequate relief of bloating, post treatment, Success (Week 9): 39 (72.2%) n (%) | Adequate relief of bloating, post treatment, Failures (Week 10): 15 (27.8%) n (%) | Adequate relief of bloating, post treatment, Success (Week 10): 39 (72.2%) n (%) | Adequate relief of bloating, post treatment, Failures (Week 11): 19 (35.2%) n (%) | Adequate relief of bloating, post treatment, Success (Week 11): 35 (64.8%) n (%) | Adequate relief of bloating, post treatment, Failure (Week 12): 18 (33.3%) n (%) | Adequate relief of bloating, post treatment, Success (Week 12): 36 (66.7%) n (%) | Adequate relief of bloating, post treatment, Failure (Week 13): 21 (38.9%) n (%) | Adequate relief of bloating, post treatment, Success (Week 13): 33 (61.1%) n (%) | Adequate relief of bloating, post treatment, Failure (Week 14): 20 (37.0%) n (%) | Adequate relief of bloating, post treatment, Success (Week 14): 34 (63.0%) n (%) | Adequate relief of bloating, post treatment, Failure (Week 15): 23 (42.6%) n (%) | Adequate relief of bloating, post treatment, Success (Week 15): 31 (57.4%) n (%) | Adequate relief of bloating, post treatment, Failure (Week 16): 22 (40.7%) n (%) | Adequate relief of bloating, post treatment, Success (Week 16): 32 (59.3%) n (%) | Treatment effect, Bloating (aIBS): 31.4%*, 31.4% | Treatment effect, IBS Sx (aIBS): 31.4%*, 31.4% | Treatment effect, Bloating (dIBS only): 4.5% | Treatment effect, IBS Sx (dIBS only): 6.3% | Patients with adequate relief of bloating [2]: 44% | Patients with adequate relief of global IBS symptoms [2]: 50% | Patients with adequate relief of bloating [3]: 47% | Patients with adequate relief of global IBS symptoms [3]: 56%
